# According to patent publication US12448373B2, “Azetidinyl-acetamides as CXCR7 inhibitors” (CHEMOCENTRYX, INC., priority 2021, dated 2025):
# Biological target: T1, CXCR7 (Homo sapiens, UniProt P25106)
# T1 construct: expressed in transfected cells; host or cells: CHO cells (CHO-CXCR7), transgenes maintained with Hygromycin B and G418
# Assay: CXCR7 β-arrestin recruitment assay in CHO-CXCR7 cells (ProLink/EA β-galactosidase complementation), induced by human SDF-1a
# Format: cell-based
# Details: assay buffer, SDF-1a at EC50 concentration
# Protocol: CXCR7 is fused in frame with a small enzyme donor fragment ProLink and co-expressed in CHO cells stably expressing a fusion protein of β-arrestin and the larger, N-terminal deletion mutant of β-galactosidase (called enzyme acceptor or EA). Activation of the CXCR7 stimulates binding of β-arrestin to the ProLink-tagged CXCR7 and forces complementation of the two enzyme fragments, resulting in the formation of an active β-galactosidase enzyme. The β-galactosidase enzyme activity is measured with a substrate that generates fluorescence.
# CHO-CXCR7 cells (0.22×10^6/mL) were cultured in growth medium (Ham's F-12 medium with 10% fetal bovine serum (FBS)), Hygromycin B (200 ug/mL) and G418 (250 ug/mL) were used to maintain the transgenes. The day before the assay, the cells were detached from culture dishes with 0.25% trypsin-EDTA (Corning, Catalog No. 25-053-CI), plated into 96 well plate (2.2×10^5 cells/mL, 100 μL/well) and incubated overnight at 37° C. with 5% CO2. On the day of the assay, cell culture medium was removed and 100 uL of assay buffer (PBS or FBS) was added to each well. 1 μL of compound that were serially diluted in DMSO was added to each well. 5 μL of human SDF-la (Pepro Tech, Catalog No. 300-28A, at EC50 concentration pre-determined on the same day) was then added and mixed to induce CXCR7-mediated β-arrestin recruitment. The plates were incubated for 1.5 hours at 37° C. The assay buffer was removed, 100 μL substrate solution was added and the reaction was carried out at 37° C. for 30 minutes. The substrate solution was prepared by mixing 100 mL Phosphate Buffer (1M, Sigma, Catalog No. P3619-1GA), 100 mL 10% Triton X 100 (Sigma, Catalog No. T8787.), 5 mL MgCl2 (1M, Sigma, Catalog No. M1028), 1.5 mL, β-mercaptoethanol (Gibco, Catalog No. 21985-023.). 3-carboxyumbelliferyl β-D-galactopyranoside (ThermoFisher Scientific, Catalo No. F2905) was added at 0.4 mM right before use. The reaction was then stopped by adding 50 μL of Stop Solution (2.1% w/v Na2CO3) to each well. Fluorescence intensity was measured with a FlexStation 3 microplate reader (Molecular Devices) with the following setting—excitation: 360 nm, emission: 465 nm, manual Gain: 55. IC50 values were calculated with GraphPad Prism using 3 parameter nonlinear regression.
# T1 sequence (P25106 whole entry): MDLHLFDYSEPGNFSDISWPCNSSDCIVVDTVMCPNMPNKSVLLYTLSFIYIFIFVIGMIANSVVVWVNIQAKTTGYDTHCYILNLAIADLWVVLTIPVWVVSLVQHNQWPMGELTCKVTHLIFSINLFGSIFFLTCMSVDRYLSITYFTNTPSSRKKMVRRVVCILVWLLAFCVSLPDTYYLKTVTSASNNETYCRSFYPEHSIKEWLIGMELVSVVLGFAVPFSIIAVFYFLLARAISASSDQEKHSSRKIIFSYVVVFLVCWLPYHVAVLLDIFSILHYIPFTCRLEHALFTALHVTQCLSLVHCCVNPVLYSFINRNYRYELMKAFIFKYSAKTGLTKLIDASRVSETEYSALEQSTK
row,Compound,IC50
1,Cc1cc(C)nc(C(C)(C)NC(=O)CC2(NC(=O)c3cc(-c4ccc(F)cc4F)on3)CN(CC3(C)CCC3)C2)n1 [Example 1.001],< 5 nM
2,CC1(CN2CC(CC(=O)NC(C)(C)c3ccccn3)(NC(=O)c3cc(-c4ccc(F)cc4F)on3)C2)CCC1 [Example 1.002],< 5 nM
3,Cc1cc(Cl)cc(C(C)(C)NC(=O)CC2(NC(=O)c3cc(-c4ccc(F)cc4F)on3)CN([C@H]3CC[C@](C)(O)CC3)C2)n1 [Example 1.003],< 5 nM
4,Cc1ccc(F)c(C(C)(C)NC(=O)CC2(NC(=O)c3nnc(-c4ccc(F)cc4F)s3)CN([C@H]3CC[C@](C)(O)CC3)C2)n1 [Example 1.005],< 5 nM
5,Cc1cc(Cl)cc(C(C)(C)NC(=O)CC2(NC(=O)c3nnc(-c4ccc(F)cc4F)s3)CN([C@H]3CC[C@](C)(O)CC3)C2)n1 [Example 1.006],< 5 nM
6,CC(C)(NC(=O)CC1(NC(=O)c2nnc(-c3ccc(F)cc3F)s2)CN([C@H]2CC[C@](C)(O)CC2)C1)c1cc(Cl)cc(Cl)c1 [Example 1.007],< 5 nM
7,Cc1ccc(F)c(C(C)(C)NC(=O)CC2(NC(=O)c3cc(-c4ccc(F)cc4F)on3)CN([C@H]3CC[C@](C)(O)CC3)C2)n1 [Example 1.008],< 5 nM
8,COc1cccnc1C(C)(C)NC(=O)CC1(NC(=O)c2nnc(-c3ccc(F)cc3F)s2)CN([C@H]2CC[C@](C)(O)CC2)C1 [Example 1.009],5 to 100 nM
9,CCC(C)CN1CC(CC(=O)NC(C)(C)c2ccccn2)(NC(=O)c2cc(-c3ccc(F)cc3F)on2)C1 (centres unmarked) [Example 1.010],< 5 nM
10,Cc1ccc(C)c(C(C)(C)NC(=O)CC2(NC(=O)c3nnc(-c4ccc(F)cc4F)s3)CN([C@H]3CC[C@](C)(O)CC3)C2)n1 [Example 1.011],< 5 nM
11,Cc1cccnc1C(C)(C)NC(=O)CC1(NC(=O)c2nnc(-c3ccc(F)cc3F)s2)CN([C@H]2CC[C@](C)(O)CC2)C1 [Example 1.012],100 to 1000 nM
12,CC1(C)CC(N2CC(CC(=O)NC(C)(C)c3ccccn3)(NC(=O)c3cc(-c4ccc(F)cc4F)on3)C2)CCO1 (centres unmarked) [Example 1.013],5 to 100 nM
13,CC(C)(NC(=O)CC1(NC(=O)c2cc(-c3ccc(F)cc3F)on2)CN(C2CC3CC3C2)C1)c1ccccn1 (centres unmarked) [Example 1.014],5 to 100 nM
14,CC(C)(NC(=O)CC1(NC(=O)c2cc(-c3ccc(F)cc3F)on2)CN(C2CC3(CC3)C2)C1)c1ccccn1 [Example 1.015],5 to 100 nM
15,CC(C)CN1CC(CC(=O)NC(C)(C)c2cncc(Cl)c2)(NC(=O)c2cc(-c3ccc(F)cc3F)on2)C1 [Example 1.016],5 to 100 nM
16,COc1ccc(F)cc1C(C)(C)NC(=O)CC1(NC(=O)c2nnc(-c3ccc(F)cc3F)s2)CN([C@H]2CC[C@](C)(O)CC2)C1 [Example 1.017],5 to 100 nM
17,CC(CN1CC(CC(=O)NC(C)(C)c2ccccn2)(NC(=O)c2cc(-c3ccc(F)cc3F)on2)C1)C(F)(F)F (centres unmarked) [Example 1.018],100 to 1000 nM
18,CC(C)(NC(=O)CC1(NC(=O)c2cc(-c3ccc(F)cc3F)on2)CN(CCC(F)(F)F)C1)c1ccccn1 [Example 1.019],100 to 1000 nM
19,CC(C)(NC(=O)CC1(NC(=O)c2cc(-c3ccc(F)cc3F)on2)CN(CC2CCC2)C1)c1ccccn1 [Example 1.020],5 to 100 nM
20,CC(C)(NC(=O)CC1(NC(=O)c2cc(-c3ccc(F)cc3F)on2)CN([C@H]2CC[C@](C)(O)CC2)C1)c1ncccc1F [Example 1.021],5 to 100 nM
21,CC(C)(NC(=O)CC1(NC(=O)c2nnc(-c3ccc(F)cc3F)s2)CN([C@H]2CC[C@](C)(O)CC2)C1)c1ncccc1F [Example 1.022],5 to 100 nM
22,CC(C)(NC(=O)CC1(NC(=O)c2cn(-c3ccc(F)cc3F)cn2)CN(C2CCCCC2)C1)c1cccc(Cl)c1 [Example 1.023],1000 to 20000 nM
23,CC(C)(NC(=O)CC1(NC(=O)c2nnc(-c3ccc(F)cc3F)s2)CN([C@H]2CC[C@](C)(O)CC2)C1)c1cc(F)ccc1F [Example 1.024],5 to 100 nM
24,CC(C)(NC(=O)CC1(NC(=O)c2nnc(-c3ccc(F)cc3F)s2)CN([C@H]2CC[C@](C)(O)CC2)C1)c1cccc(C#N)c1 [Example 1.025],5 to 100 nM
25,Cc1cccc(C(C)(C)NC(=O)CC2(NC(=O)c3cc(-c4ccc(F)cc4F)on3)CN(CC(C)C)C2)n1 [Example 1.026],5 to 100 nM

# Results, then the molecule that gave them:
row,IC50,Compound
1,5 to 100 nM,Cc1cccc(C(C)(C)NC(=O)CC2(NC(=O)c3nnc(-c4ccc(F)cc4F)s3)CN(CC(C)C)C2)n1 [Example 1.027]
2,5 to 100 nM,CC(C)(NC(=O)CC1(NC(=O)c2nnc(-c3ccc(F)cc3F)s2)CN([C@H]2CC[C@](C)(O)CC2)C1)c1cc(F)cc(F)c1 [Example 1.028]
3,5 to 100 nM,CC(C)(NC(=O)CC1(NC(=O)c2cc(-c3ccc(F)cc3F)on2)CN(CC2CCCC2)C1)c1ccccn1 [Example 1.029]
4,5 to 100 nM,Cc1cc(C)nc(C(C)(C)NC(=O)CC2(NC(=O)c3nnc(-c4ccc(F)cc4F)s3)CN(CC3CC3)C2)n1 [Example 1.030]
5,< 5 nM,Cc1cc(C)nc(C(C)(C)NC(=O)CC2(NC(=O)c3nnc(-c4ccc(F)cc4F)s3)CN([C@H]3CC[C@](C)(O)CC3)C2)c1 [Example 1.031]
6,< 5 nM,Cc1cccc(C(C)(C)NC(=O)CC2(NC(=O)c3nnc(-c4ccc(F)cc4F)s3)CN([C@H]3CC[C@](C)(O)CC3)C2)n1 [Example 1.032]
7,5 to 100 nM,CC(C)(NC(=O)CC1(NC(=O)c2nnc(-c3ccc(F)cc3F)s2)CN([C@H]2CC[C@](C)(O)CC2)C1)c1ncccn1 [Example 1.033]
8,100 to 1000 nM,CC(C)(NC(=O)CC1(NC(=O)c2cc(-c3ccc(F)cc3F)on2)CN([C@H]2CC[C@@](C)(O)CC2)C1)c1ccccn1 [Example 1.034]
9,5 to 100 nM,CC(C)(NC(=O)CC1(NC(=O)c2cc(-c3ccc(F)cc3F)on2)CN([C@H]2CC[C@](C)(O)CC2)C1)c1ccccn1 [Example 1.035]
10,5 to 100 nM,CC(C)CN1CC(CC(=O)NC(C)(C)c2cc(F)cc(F)c2)(NC(=O)c2cc(-c3ccc(F)cc3F)on2)C1 [Example 1.036]
11,5 to 100 nM,Cc1cc(C)nc(C(C)(C)NC(=O)CC2(NC(=O)c3cc(-c4ccc(F)cc4F)on3)CN(CC(C)C)C2)n1 [Example 1.037]
12,5 to 100 nM,CC(C)(NC(=O)CC1(NC(=O)c2nnc(-c3ccc(F)cc3F)s2)CN(CC2CC2)C1)c1cccc(Cl)c1 [Example 1.038]
13,5 to 100 nM,Cc1cc(C)nc(C(C)(C)NC(=O)CC2(NC(=O)c3nnc(-c4ccc(F)cc4F)s3)CN(CC(C)C)C2)n1 [Example 1.039]
14,5 to 100 nM,CC(C)CN1CC(CC(=O)NC(C)(C)c2cccc(Cl)c2)(NC(=O)c2nnc(-c3ccc(F)cc3F)s2)C1 [Example 1.040]
15,5 to 100 nM,Cc1ccnc(C(C)(C)NC(=O)CC2(NC(=O)c3nnc(-c4ccc(F)cc4F)s3)CN([C@H]3CC[C@](C)(O)CC3)C2)n1 [Example 1.041]
16,< 5 nM,CC(C)(NC(=O)CC1(NC(=O)c2nnc(-c3ccc(F)cc3F)s2)CN([C@H]2CC[C@](C)(O)CC2)C1)c1cccc(F)c1 [Example 1.042]
17,100 to 1000 nM,CC(C)(NC(=O)CC1(NC(=O)c2cc(-c3ccc(F)cc3F)sn2)CN([C@H]2CC[C@@](C)(O)CC2)C1)c1cccc(Cl)c1 [Example 1.043]
18,100 to 1000 nM,CC(C)(NC(=O)CC1(NC(=O)c2cc(-c3ccc(F)cc3F)sn2)CN([C@H]2CC[C@](C)(O)CC2)C1)c1cccc(Cl)c1 [Example 1.044]
19,5 to 100 nM,CC(C)(NC(=O)CC1(NC(=O)c2ncc(-c3ccc(F)cc3F)s2)CN([C@H]2CC[C@@](C)(O)CC2)C1)c1cccc(Cl)c1 [Example 1.045]
20,5 to 100 nM,CC(C)(NC(=O)CC1(NC(=O)c2ncc(-c3ccc(F)cc3F)s2)CN([C@H]2CC[C@](C)(O)CC2)C1)c1cccc(Cl)c1 [Example 1.046]
21,5 to 100 nM,CC(C)(NC(=O)CC1(NC(=O)c2cc(-c3ccc(F)cc3F)no2)CN([C@H]2CC[C@@](C)(O)CC2)C1)c1cccc(Cl)c1 [Example 1.047]
22,< 5 nM,CC(C)(NC(=O)CC1(NC(=O)c2cc(-c3ccc(F)cc3F)no2)CN([C@H]2CC[C@](C)(O)CC2)C1)c1cccc(Cl)c1 [Example 1.048]
23,1000 to 20000 nM,CC(C)(NC(=O)CC1(NC(=O)c2cnn(-c3ccc(F)cc3F)c2)CN([C@H]2CC[C@](C)(O)CC2)C1)c1cccc(Cl)c1 [Example 1.049]
24,1000 to 20000 nM,CC(C)(NC(=O)CC1(NC(=O)c2csc(-c3ccc(F)cc3F)n2)CN([C@H]2CC[C@@](C)(O)CC2)C1)c1cccc(Cl)c1 [Example 1.050]
25,1000 to 20000 nM,CC(C)(NC(=O)CC1(NC(=O)c2csc(-c3ccc(F)cc3F)n2)CN([C@H]2CC[C@](C)(O)CC2)C1)c1cccc(Cl)c1 [Example 1.051]
